# Measured values taken from paper PMC5394527 (Journal of Medicinal Chemistry, 2017).
# Like-named read-outs stand apart in the source and are kept apart here.
# Assays:
# [1] = system: SJSA-1 osteosarcoma tumor xenograft; settings: for weight loss of mice during the experiment: SJSA-1 xenograft experiment, 30 or 100 mg/kg daily for 14 days; for antitumor activity in SJSA-1 xenograft model: mice; for antitumor efficacy (regression): last line of Table 6, SJSA-1 xenograft model in mice
# [2] = system: p53 activation (MDM2, p53, p21, cleaved PARP, cleaved caspase-3) in SJSA-1 tumors; settings: mice, single oral dose 100 mg/kg
# [3] = system: RS4;11 acute lymphoblastic leukemia xenograft; settings: for antitumor activity in RS4;11 xenograft model: mice
# [4] = target: MDM2 (Homo sapiens, UniProt Q00987)
# Chain of MDM2 (Q00987 whole entry): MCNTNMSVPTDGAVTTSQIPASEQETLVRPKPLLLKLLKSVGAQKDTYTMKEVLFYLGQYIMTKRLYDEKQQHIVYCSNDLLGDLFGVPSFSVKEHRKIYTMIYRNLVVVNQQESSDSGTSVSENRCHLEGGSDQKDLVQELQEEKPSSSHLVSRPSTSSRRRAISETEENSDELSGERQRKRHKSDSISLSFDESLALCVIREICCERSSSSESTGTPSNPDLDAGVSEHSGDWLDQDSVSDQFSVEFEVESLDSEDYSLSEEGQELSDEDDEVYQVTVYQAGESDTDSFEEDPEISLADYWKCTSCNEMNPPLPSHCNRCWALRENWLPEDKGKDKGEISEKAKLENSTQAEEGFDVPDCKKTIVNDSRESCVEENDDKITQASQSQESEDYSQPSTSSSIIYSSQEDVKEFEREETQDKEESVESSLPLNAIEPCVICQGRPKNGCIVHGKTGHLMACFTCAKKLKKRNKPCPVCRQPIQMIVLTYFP
# [5] = system: SJSA-1 cancer cell line; settings: cited from earlier work
# [6] = system: SJSA-1 osteosarcoma tumor xenograft; settings: mice; cited from earlier work
# [7] = cited from earlier work
# [8] = system: SJSA-1 cancer cell line; experiment: cells; settings: Homo sapiens, SJSA-1, read-out: SJSA-1 IC50, cell growth inhibition
# [9] = oral 30 mg/kg daily for 14 days
# [10] = oral gavage 100 mg/kg daily for 14 days
structure (smiles),measurement,setting,value
"CCN1[C@@H](C(=O)NC23CCC(C(=O)O)(CC2)CC3)[C@H](c2cccc(Cl)c2F)[C@]2(C(=O)Nc3cc(Cl)ccc32)C12CCCCC2 [Compound 60, 4-((3′R,4′S,5′R)-6″-Chloro-4′-(3-chloro-2-fluorophenyl)-1′-ethyl-2″-oxodispiro[cyclohexane-1,2′-pyrrolidine-3′,3″-indoline]-5′-carboxamido)bicyclo[2.2.2]octane-1-carboxylic Acid]",weight loss of mice during the experiment,[1],no or minimal weight loss
same,antitumor activity in SJSA-1 xenograft model,[1]; [9],effectively inhibits tumor growth
same,antitumor activity in SJSA-1 xenograft model,[1]; [10],complete and long-lasting tumor regression
same,persistence of p53 activation in SJSA-1 xenograft tumor tissue,[2],24 h
same,antitumor activity in RS4;11 xenograft model,[3]; 200 mg/kg weekly dosing for 3 weeks,partial tumor regression
same,tolerability in RS4;11 xenograft experiment,"[3]; mice, 50, 75, 100 mg/kg daily or 200 mg/kg weekly",well tolerated at all doses and schedules
same,antitumor activity in RS4;11 xenograft model,[3]; oral 100 mg/kg daily for 14 days,partial tumor regression
same,chemical stability in solutions,"1:1 CH3CN/H2O, 1:1 MeOH/H2O, cell culture media, 7 days",very stable in solutions for a period of 7 days
"CNC(=O)[C@@H]1NC2(CCNCC2)[C@@]2(C(=O)Nc3cc(Cl)ccc32)[C@H]1c1cccc(Cl)c1F [Compound 8, (3R,4′S,5′R)-6-Chloro-4′-(3-chloro-2-fluorophenyl)-N-methyl-2-oxodispiro[indoline-3,3′-pyrrolidine-2′,4″-piperidine]-5′-carboxamide]",no appreciable binding to MDM2 up to,[4],> 2 µM
O=C(O)[C@@H]1NC2(CCCCC2)[C@@]2(C(=O)Nc3cc(Cl)ccc32)[C@H]1c1cccc(Cl)c1F [Compound 29],IC50,"[5]; read-out: SJSA-1 IC50, cell growth inhibition",> 10 µM
"O=C(NC12CCC(C(=O)O)(CC1)CC2)[C@@H]1NC2(CCCCC2)[C@@]2(C(=O)Nc3cc(Cl)ccc32)[C@H]1c1cccc(Cl)c1F [Compound 56, 4-((3′R,4′S,5′R)-6″-Chloro-4′-(3-chloro-2-fluorophenyl)-2″-oxodispiro[cyclohexane-1,2′-pyrrolidine-3′,3″-indoline]-5′-carboxamido)bicyclo[2.2.2]octane-1-carboxylic Acid]",weight loss of mice during the experiment,[1],no or minimal weight loss
same,antitumor efficacy (regression),[1],no regression
same,apoptosis induction (cleavage of PARP and caspase-3) in SJSA-1 xenograft tumor tissue,[2],no cleavage of PARP and caspase-3
"O=C(N[C@H]1CC[C@H](O)CC1)[C@@H]1NC2(CCCCC2)[C@@]2(C(=O)Nc3cc(Cl)ccc32)[C@H]1c1cccc(Cl)c1F [Compound 6, (3′R,4′S,5′R)-6″-Chloro-4′-(3-chloro-2-fluorophenyl)-N-((1r,4R)-4-hydroxycyclohexyl)-2″-oxodispiro[cyclohexane-1,2′-pyrrolidine-3′,3″-indoline]-5′-carboxamide]",decomposition,"after 2 days in cell culture media, UPLC",< 1%
same,IC50,[5]; read-out: SJSA-1 cell growth inhibition IC50,0.19 µM
same,antitumor activity in SJSA-1 xenograft model,[6],strong tumor growth inhibition but not complete tumor regression
"CC(C)(C)C[C@@H]1N[C@@H](C(=O)N[C@H]2CC[C@H](O)CC2)[C@H](c2cccc(Cl)c2F)[C@]12C(=O)Nc1cc(Cl)ccc12 [Compound 2, reference compound]",antitumor activity in SJSA-1 xenograft model,[1]; [10],complete tumor regression
same,apoptosis induction (cleavage of PARP and caspase-3) in SJSA-1 xenograft tumor tissue,[2],induce strong apoptosis
same,"p53 activation (MDM2, p53, p21 levels) in SJSA-1 xenograft tumor tissue",[2],robust activation of p53
same,purity retained,in solutions after 7 days (slow isomerization),93–96%
"CS(=O)(=O)NC(=O)C12CCC(NC(=O)[C@@H]3NC4(CCCCC4)[C@@]4(C(=O)Nc5cc(Cl)ccc54)[C@H]3c3cccc(Cl)c3F)(CC1)CC2 [Compound 58, (3′R,4′S,5′R)-6″-Chloro-4′-(3-chloro-2-fluorophenyl)-N-(4-((methylsulfonyl)carbamoyl)-bicyclo[2.2.2]octan-1-yl)-2″-oxodispiro[cyclohexane-1,2′-pyrrolidine-3′,3″-indoline]-5′-carboxamide]",apoptosis induction (cleavage of PARP and caspase-3) in SJSA-1 xenograft tumor tissue,[2],modest effect on activation of p53 and induction of cleavage of PARP and caspase-3
"O=C(NC12CCC(C(=O)O)(CC1)CC2)[C@@H]1NC2(CCC(F)(F)CC2)[C@@]2(C(=O)Nc3cc(Cl)ccc32)[C@H]1c1cccc(Cl)c1F [Compound 57, 4-((3′R,4′S,5′R)-6″-Chloro-4′-(3-chloro-2-fluorophenyl)-4,4-difluoro-2″-oxodispiro[cyclohexane-1,2′-pyrrolidine-3′,3″-indoline]-5′-carboxamido)bicyclo[2.2.2]octane-1-carboxylic Acid]",apoptosis induction (cleavage of PARP and caspase-3) in SJSA-1 xenograft tumor tissue,[2],modest effect on activation of p53 and induction of cleavage of PARP and caspase-3
O=C(O)c1ccc(NC(=O)[C@@H]2NC3(CCCCC3)[C@@]3(C(=O)Nc4cc(Cl)ccc43)[C@H]2c2cccc(Cl)c2F)cc1 [Compound 39],antitumor activity in SJSA-1 xenograft model,[6],partial tumor regression
same,stability in solution,[7],very stable in solution
"CC1(C)CCC2(CC1)N[C@@H](C(=O)Nc1ccc(C(=O)O)cc1)[C@H](c1cccc(Cl)c1F)[C@]21C(=O)Nc2cc(Cl)ccc21 [Compound 54, 4-((3′R,4′S,5′R)-6″-Chloro-4′-(3-chloro-2-fluorophenyl)-4,4-dimethyl-2″-oxodispiro[cyclo-hexane-1,2'-pyrrolidine-3′,3″-indoline]-5'-carboxamido)benzoic Acid]",antitumor efficacy (regression),[1],87% regression
same,antitumor activity in SJSA-1 xenograft model,[1]; oral gavage 50 mg/kg daily for 14 days,effectively retards tumor growth
"CN1[C@@H](C(=O)NC23CCC(C(=O)O)(CC2)CC3)[C@H](c2cccc(Cl)c2F)[C@]2(C(=O)Nc3cc(Cl)ccc32)C12CCCCC2 [Compound 59, 4-((3′R,4′S,5′R)-6″-Chloro-4′-(3-chloro-2-fluorophenyl)-1′-methyl-2″-oxodispiro[cyclohexane-1,2′-pyrrolidine-3′,3″-indoline]-5′-carboxamido)bicyclo[2.2.2]octane-1-carboxylic Acid]",weight loss of mice during the experiment,[1],no or minimal weight loss
same,antitumor activity in SJSA-1 xenograft model,[1]; [9],effectively inhibits tumor growth
same,antitumor activity in SJSA-1 xenograft model,[1]; [10],complete and long-lasting tumor regression
same,persistence of p53 activation in SJSA-1 xenograft tumor tissue,[2],24 h
"O=C(N[C@H]1CC[C@H](C(=O)O)CC1)[C@@H]1NC2(CCCCC2)[C@@]2(C(=O)Nc3cc(Cl)ccc32)[C@H]1c1cccc(Cl)c1F [Compound 33, (1R,4r)-4-((3′R,4′S,5′R)-6″-Chloro-4′-(3-chloro-2-fluorophenyl)-2″-oxodispiro[cyclohexane-1,2′-pyrrolidine-3′,3″-indoline]-5′-carboxamido)cyclohexane-1-carboxylic Acid]",antitumor activity in SJSA-1 xenograft model,[1]; [10],"effectively retard tumor growth, it failed to achieve tumor regression"
same,stability in solution,"CH3CN/H2O, MeOH/H2O or cell culture media, 2 days",can decompose in solution
"CN1[C@@H](c2nc(CC(=O)O)cs2)[C@H](c2cccc(Cl)c2F)[C@]2(C(=O)Nc3cc(Cl)ccc32)C12CCCCC2 [Compound 27, 2-(2-((3′R,4′S,5′R)-6″-Chloro-4′-(3-chloro-2-fluorophenyl)-1′-methyl-2″-oxodispiro[cyclohexane-1,2′-pyrrolidine-3′,3″-indolin]-5′-yl)thiazol-4-yl)acetic Acid]",IC50,[8],> 2 µM
